The values that follow come from patent US20250295795A1, “PEPTIDE” (priority 2021, published 2025).

For the assay, the system named is HeLa cells. Kind of assay: Co-delivery of antibodies, antibody fragments and RFP into live Hela cells. The class given is cell-based, human. The text has this: Access to the cytosol by mechanisms that are independent of transmembrane pore formation constitutes a preferred method of co-delivery due to reduced toxicity to the cell. […] Successful delivery of Fab is indicated by homogenous distribution of AF647 signal in the cytosol and nucleus and is only observed in cells which have been transduced with tri-cTat B (FIG. 13). Time course of Fab uptake by tri-cTat B (FIG. 5c) follows a similar pattern as tri-cTat B alone (FIG. 3b, d). Tri-cTat B and Fab form large vesicle-like bodies that appear to release their contents into the cytosol of the cell; unambiguous cytosolic staining by Fab is observed from 23 min. Interaction between peptide trimer and biomacromolecule, mediated by charge-charge interactions is essential for the accumulation of both in endosomes and subsequent release and delivery of cargo into cells. Delivery of relatively β-sheet rich, neutrally charged recombinant RFP was unsuccessful (FIG. 16) due to a lack of association between tri-cTat B and cargo (FIG. 17). On the other hand, interaction diminishes the efficacy of the peptide trimer due to charge masking, emphasising the need to maintain an appropriate peptide to cargo ratio for a given macromolecule. Experiments to explore the efficacy of tri-cTat B in the presence of serum supplemented medium underline this principle; while tri-cTat B continues to function in the presence of serum, the number of transduced cells diminishes (42% (serum) vs. 61% (serum free)), but can be restored by increasing tri-cTat B concentration to 2 μM (79% (serum); FIG. 15). […] This is likely due to the larger size of antibodies and also to the observation that antibodies have a greater tendency to aggregate in the presence of tri-cTat B compared to Fab fragments. […] Finally, we investigated whether it is possible to deliver functional antibodies and antibody fragments into the cytosol and nuclei of cells. β-actin was chosen as a proof-of-principle protein because of its abundance in the cell and formation of distinctive subcellular filaments. To clearly identify actin filaments, Hela cells were transfected with red fluorescent protein fused to actin (actin-RFP) before being incubated with β-actin antibody (mouse IgG2b) or β-actin Fab fragment (mouse) conjugated to AF647 plus tri-cTat B for 30 min. After washing, cells were left for 60 min to allow IgG/Fab to bind to actin filaments. […] To enable objective quantification of co-localization between β-actin filaments and IgG/Fab fragment (white arrows), a co-localization threshold algorithm was used in selected regions of interest (ROI). Pearson's and Manders' coefficients were obtained under Costes' automatic threshold^32 and the co-localized pixels are shown as a mask of yellow pixels of constant intensity (co-localization panels). The significance of the co-localization parameters (Pearson's and Manders' coefficients) was evaluated using the confined displacement algorithm (CDA).
HeLa and CHO cells were cultured in DMEM supplemented with 10% FBS and penicillin/streptomycin. For post-wash experiments, Tat conjugate was added to the cells in serum free medium, cells incubated at 37° C. in an atmosphere of 5% CO2, culture medium removed at the desired time point, cells washed and transferred to the microscope for imaging. For time course or pre-wash experiments, cells were transferred to the microscope (incubation chamber at 37° C., 5% CO2) and Tat conjugate added directly to cell medium and cells imaged at desired time points. Co-delivery experiments were conducted by adding peptide trimer immediately followed by cargo into serum free medium. Samples were visualised using a Zeiss LSM 780 inverted confocal microscope fitted with a XLmultiS1 incubation chamber and Plan-Apochromat 63×/1.40 Oil DIC M27 objective. Images were analysed using ImageJ software. Digital adjustments and image processing are consistent throughout the manuscript, unless otherwise stated in the figure legend. […]

Turning to `N=C(N)NCCC[C@@H]1NC(=O)[C@H](CCCNC(=N)N)NC(=O)[C@H](CCCNC(=N)N)NC(=O)[C@H](CCC(N)=O)NC(=O)[C@H](CCCNC(=N)N)NC(=O)[C@H](CCCNC(=N)N)NC(=O)[C@H](CCCCN)NC(=O)[C@H](CCCCN)NC(=O)[C@H](CCCNC(=N)N)NC(=O)[C@H](CCCCn2cc(COCC(COCc3cn(CCCCCCNC(=O)c4ccc5c(c4)C(=O)OC54c5ccc(N)c(S(=O)(=O)O)c5Oc5c4ccc(N)c5S(=O)(=O)O)nn3)(COCc3cn(CCCC[C@@H]4NC(=O)CC[C@@H](C(N)=O)NC(=O)[C@H](CCCNC(=N)N)NC(=O)[C@H](CCCNC(=N)N)NC(=O)[C@H](CCCNC(=N)N)NC(=O)[C@H](CCC(N)=O)NC(=O)[C@H](CCCNC(=N)N)NC(=O)[C@H](CCCNC(=N)N)NC(=O)[C@H](CCCCN)NC(=O)[C@H](CCCCN)NC(=O)[C@H](CCCNC(=N)N)NC4=O)nn3)COCc3cn(CCCC[C@@H]4NC(=O)CC[C@@H](C(N)=O)NC(=O)[C@H](CCCNC(=N)N)NC(=O)[C@H](CCCNC(=N)N)NC(=O)[C@H](CCCNC(=N)N)NC(=O)[C@H](CCC(N)=O)NC(=O)[C@H](CCCNC(=N)N)NC(=O)[C@H](CCCNC(=N)N)NC(=O)[C@H](CCCCN)NC(=O)[C@H](CCCCN)NC(=O)[C@H](CCCNC(=N)N)NC4=O)nn3)nn2)NC(=O)CC[C@@H](C(N)=O)NC1=O` (stereo partly shown) [tri-cTat B], the “cells showing homogenous AF647 staining in cytosol and nucleus (whole IgG co-delivery)” value (166 nM IgG-AF647 + 1 μM trimer, 45 min) is reported as “approximately 20%”. Moreover, where the note is “500 nM AF647-labelled non-specific mouse Fab + 1 μM trimer, 30 min”, the “cells with Fab delivered into cytosol and nucleus” value was 50%. Besides, the “time from which unambiguous cytosolic staining by Fab is observed” value (500 nM Fab-AF647 + 1 μM trimer) is 23 min. Further, where the note is “1 μM trimer + 1 or 2 μM recombinant RFP, 30 min, serum free”, the “delivery of recombinant RFP” value is listed as “unsuccessful”.
